Experimental data: patent US20250179103A1, “6-OXODECAHYDROPYRROLO[1,2-A][1,5]DIAZOCINE AND 6-OXODECAHYDRO-4H-PYRROLO[2,1-D][1,5]THIAZOCINE DERIVATIVES AS STAT3 AND STAT6 MODULATORS FOR THE TREATMENT OF CANCER AND INFLAMMATORY CONDITIONS” (Recludix Pharma, Inc., priority 2022, published 2025)

How the values were obtained:
[1] = biological target: T1, Recombinant STAT3 protein (STAT3(G127-I722)) (Homo sapiens, UniProt P40763); test: STAT3 Fluorescence Polarization (FP) Assay; type: binding; conditions: STAT3(G127-I722) 25 nM, probe 5-FAM-GpYLPQTV-NH2 2 nM, 45-minute incubation
T1 construct: Recombinant STAT3 protein (STAT3(G127-I722))
Method: STAT3 Fluorescence Polarization (FP) Assay
An FP assay was developed to determine IC50 values for test substances. Recombinant STAT3 protein (STAT3(G127-I722)) at 25 nM was combined with a fluorescently labeled, phosphotyrosine peptide probe (5-FAM-GpYLPQTV-NH2) at 2 nM in FP buffer (10 mM HEPES pH 7.4, 50 mM NaCl, 1 mM EDTA, 0.05% Tween 20.2 mM DTT). 50 μL of STAT3-probe mixture was added to serial diluted compounds in black, 96-well plates (Greiner BioOne 655076) to a final concentration of 1% DMSO. Reaction components were mixed, and FP was measured after 45-minute incubation at room temperature using a Tecan Spark multimode plate reader. FP signal (mP) was plotted against the log concentration of the test substances and IC50 values were calculated by nonlinear regression analysis using GraphPad Prism software. For STAT3 FP assay, A=≤100 nM; B=>100-1000 nM; C=>1-10 μM; and D=>10 μM.

[2] = biological target: T2, Recombinant STAT6 protein (STAT6(W123-T658)) (Homo sapiens, UniProt P42226); test: STAT6 Fluorescence Polarization (FP) Assay; type: binding; conditions: STAT6(W123-T658) 250 nM, probe 5-FAM-ApYKPFQDLI-NH2 2 nM, 45-minute incubation
T2 construct: Recombinant STAT6 protein (STAT6(W123-T658))
T2 sequence (P42226 123-658): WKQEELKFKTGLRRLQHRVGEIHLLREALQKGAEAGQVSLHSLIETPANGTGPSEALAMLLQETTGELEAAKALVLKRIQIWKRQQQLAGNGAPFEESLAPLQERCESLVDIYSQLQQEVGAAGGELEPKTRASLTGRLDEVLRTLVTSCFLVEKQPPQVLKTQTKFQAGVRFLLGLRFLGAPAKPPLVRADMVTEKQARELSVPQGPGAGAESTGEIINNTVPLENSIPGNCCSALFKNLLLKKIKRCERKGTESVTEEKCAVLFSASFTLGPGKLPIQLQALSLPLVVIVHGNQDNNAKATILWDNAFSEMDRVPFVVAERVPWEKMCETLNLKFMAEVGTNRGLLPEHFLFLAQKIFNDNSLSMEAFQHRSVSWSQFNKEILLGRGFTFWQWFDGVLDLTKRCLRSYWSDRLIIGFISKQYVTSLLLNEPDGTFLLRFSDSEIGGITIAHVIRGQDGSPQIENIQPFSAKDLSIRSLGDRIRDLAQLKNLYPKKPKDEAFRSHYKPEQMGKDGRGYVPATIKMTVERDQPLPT
Method: STAT6 Fluorescence Polarization (FP) Assay
An FP assay was developed to determine IC50 values for test substances. Recombinant STAT6 protein (STAT6(W123-T658)) at 250 nM was combined with a fluorescently labeled, phosphotyrosine peptide probe (5-FAM-ApYKPFQDLI-NH2) at 2 nM in FP buffer (10 mM HEPES pH 7.4, 50 mM NaCl, 1 mM EDTA, 0.05% Tween 20.2 mM DTT). 50 μL of STAT6-probe mixture was added to serial diluted compounds in black, 96-well plates (Greiner BioOne 655076) to a final concentration of 1% DMSO. Reaction components were mixed, and FP was measured after 45-minute incubation at room temperature using a Tecan Spark multimode plate reader. FP signal (mP) was plotted against the log concentration of the test substances and IC50 values were calculated by nonlinear regression analysis using GraphPad Prism software. For STAT6 FP assay, A=≤300 nM; B=>300-3000 nM; C=>3-30 μM; and D=>30 μM.

T1 sequence (P40763 127-722): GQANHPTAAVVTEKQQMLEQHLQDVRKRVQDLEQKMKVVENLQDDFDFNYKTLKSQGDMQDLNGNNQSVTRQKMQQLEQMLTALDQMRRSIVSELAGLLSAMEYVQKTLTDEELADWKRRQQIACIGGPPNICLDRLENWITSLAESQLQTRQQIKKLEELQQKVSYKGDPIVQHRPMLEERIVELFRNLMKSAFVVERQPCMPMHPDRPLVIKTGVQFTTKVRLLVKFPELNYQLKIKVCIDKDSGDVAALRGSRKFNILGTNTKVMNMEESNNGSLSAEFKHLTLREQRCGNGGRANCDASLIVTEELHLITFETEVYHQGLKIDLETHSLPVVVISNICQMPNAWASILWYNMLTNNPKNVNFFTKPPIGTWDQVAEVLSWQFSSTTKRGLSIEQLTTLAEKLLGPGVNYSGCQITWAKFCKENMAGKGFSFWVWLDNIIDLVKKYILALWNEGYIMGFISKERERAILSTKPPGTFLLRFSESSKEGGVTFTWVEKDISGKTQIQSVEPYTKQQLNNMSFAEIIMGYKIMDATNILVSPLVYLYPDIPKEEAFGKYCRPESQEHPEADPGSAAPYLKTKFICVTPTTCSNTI

SMILES	IC50 [1] [µM]	IC50 [2] [µM]
N#C[C@H]1CN(C(=O)[C@@H]2CC[C@@H]3CN(C(=O)OCc4ccccc4)CC[C@H](NC(=O)c4ccc5ccc(C(F)(F)P(=O)(O)O)cc5c4)C(=O)N32)C[C@@H]1c1ccccc1 (relative stereo) [Compound 213, ((7-(((5S,8S,10aR)-2-((benzyloxy)carbonyl)-8-((rel-trans)-3-cyano-4-phenylpyrrolidine-1-carbonyl)-6-oxodecahydropyrrolo[1,2-a][1,4]diazocin-5-yl)carbamoyl)naphthalen-2-yl)difluoromethyl)phosphonic acid]	1 to 10	≤ 0.3
CCN1CC[C@H](NC(=O)c2ccc3ccc(C(F)(F)P(=O)(O)O)cc3c2)C(=O)N2[C@H](CC[C@H]2C(=O)N2C[C@H](c3ccccc3)[C@@H](C#N)C2)C1 (relative stereo) [Compound 227, ((7-(((5S,8S,10aR)-8-((rel-trans)-3-cyano-4-phenylpyrrolidine-1-carbonyl)-2-ethyl-6-oxodecahydropyrrolo[1,2-a][1,4]diazocin-5-yl)carbamoyl)naphthalen-2-yl)difluoromethyl)phosphonic acid]	1 to 10	≤ 0.3
N#C[C@H]1CN(C(=O)[C@@H]2CC[C@@H]3CN(C4CCC4)CC[C@H](NC(=O)c4ccc5ccc(C(F)(F)P(=O)(O)O)cc5c4)C(=O)N32)C[C@@H]1c1ccccc1 (relative stereo) [Compound 228, ((7-(((5S,8S,10aR)-8-((rel-trans)-3-cyano-4-phenylpyrrolidine-1-carbonyl)-2-cyclobutyl-6-oxodecahydropyrrolo[1,2-a][1,4]diazocin-5-yl)carbamoyl)naphthalen-2-yl)difluoromethyl)phosphonic acid]	1 to 10	≤ 0.3
Cc1ccc2[nH]nc(C(=O)N3CC[C@H](NC(=O)c4ccc5ccc(C(F)(F)P(=O)(O)O)cc5c4)C(=O)N4[C@H](CC[C@H]4C(=O)N4C[C@H](c5ccccc5)[C@@H](C#N)C4)C3)c2c1 (relative stereo) [Compound 233, ((7-(((5S,8S,10aR)-8-(rel-tran)-3-cyano-4-phenylpyrrolidine-1-carbonyl)-2-(5-methyl-1H-indazole-3-carbonyl)-6-oxodecahydropyrrolo[1,2-a][1,4]diazocin-5-yl)carbamoyl)naphthalen-2-yl)difluoromethyl)phosphonic acid]	1 to 10	≤ 0.3
Cc1ccc2[nH]nc(C(=O)N3CC[C@H]4CC[C@@H](C(=O)N5C[C@H](c6ccccc6)[C@@H](C#N)C5)N4C(=O)[C@@H](NC(=O)c4ccc5ccc(C(F)(F)P(=O)(O)O)cc5c4)C3)c2c1 (relative stereo) [Compound 236, ((7-(((5S,8S,10aR)-8-((rel-trans)-3-cyano-4-phenylpyrrolidine-1-carbonyl)-3-(5-methyl-1H-indazole-3-carbonyl)-6-oxodecahydropyrrolo[1,2-a][1,5]diazocin-5-yl)carbamoyl)naphthalen-2-yl)difluoromethyl)phosphonic acid]	0.1 to 1	≤ 0.3
CCN1CC[C@H]2CC[C@@H](C(=O)N3C[C@@H](C#N)[C@H](c4cc[nH]c(=O)c4)C3)N2C(=O)[C@@H](NC(=O)c2ccc3ccc(C(F)(F)P(=O)(O)O)cc3c2)C1 (relative stereo) [Compound 240, ((7-(((5S,8S,10aR)-8-((rel-trans)-3-cyano-4-(2-oxo-1,2-dihydropyridin-4-yl)pyrrolidine-1-carbonyl)-3-ethyl-6-oxodecahydropyrrolo[1,2-a][1,5]diazocin-5-yl)carbamoyl)naphthalen-2-yl)difluoromethyl)phosphonic acid]	1 to 10	0.3 to 3
N#C[C@H]1CN(C(=O)[C@@H]2CC[C@@H]3CCN(CC(F)F)C[C@H](NC(=O)c4ccc5ccc(C(F)(F)P(=O)(O)O)cc5c4)C(=O)N32)CC[C@@H]1c1ccccc1 (relative stereo) [Compound 241, ((7-(((5S,8S,10aR)-8-((rel-trans)-3-cyano-4-phenylpiperidine-1-carbonyl)-3-(2,2-difluoroethyl)-6-oxodecahydropyrrolo[1,2-a][1,5]diazocin-5-yl)carbamoyl)naphthalen-2-yl)difluoromethyl)phosphonic acid]	1 to 10	0.3 to 3
O=C(N[C@H]1CN(CC(F)F)CC[C@H]2CC[C@@H](C(=O)N3C[C@H](c4ccccc4)[C@@H](C(F)F)C3)N2C1=O)c1cc2cc(C(F)(F)P(=O)(O)O)ccc2s1 (relative stereo) [Compound 242, ((2-(((5S,8S,10aR)-3-(2,2-difluoroethyl)-8-((rel-trans)-3-(difluoromethyl)-4-phenylpyrrolidine-1-carbonyl)-6-oxodecahydropyrrolo[1,2-a][1,5]diazocin-5-yl)carbamoyl)benzo[b]thiophen-5-yl)difluoromethyl)phosphonic acid]	0.1 to 1	≤ 0.3
N#C[C@H]1CN(C(=O)[C@@H]2CC[C@@H]3CCN(CC(F)F)C[C@H](NC(=O)c4ccc5ccc(C(F)(F)P(=O)(O)O)cc5c4)C(=O)N32)C[C@@H]1c1cc(F)cc(F)c1 (relative stereo) [Compound 246, ((7-(((5S,8S,10aR)-8-((rel-trans)-3-cyano-4-(3,5-difluorophenyl)pyrrolidine-1-carbonyl)-3-(2,2-difluoroethyl)-6-oxodecahydropyrrolo[1,2-a][1,5]diazocin-5-yl)carbamoyl)naphthalen-2-yl)difluoromethyl)phosphonic acid]	1 to 10	0.3 to 3
COC(=O)N1CC[C@H]2CC[C@@H](C(=O)N3C[C@H](c4ccccc4)[C@@H](C#N)C3)N2C(=O)[C@@H](NC(=O)c2cc3cc(C(F)(F)P(=O)(O)O)ccc3s2)C1 (relative stereo) [Compound 250, ((2-(((5S,8S,10aR)-8-((rel-trans)-3-cyano-4-phenylpyrrolidine-1-carbonyl)-3-(methoxycarbonyl)-6-oxodecahydropyrrolo[1,2-a][1,5]diazocin-5-yl)carbamoyl)benzo[b]thiophen-5-yl)difluoromethyl)phosphonic acid]	0.1 to 1	≤ 0.3
CC(C)CN1CC[C@H]2CC[C@@H](C(=O)N3C[C@@H](C#N)[C@H](c4ccccc4)C3)N2C(=O)[C@@H](NC(=O)c2cc3cc(C(F)(F)P(=O)(O)O)ccc3s2)C1 (relative stereo) [Compound 279, ((2-(((5S,8S,10aR)-8-((rel-trans)-3-cyano-4-phenylpyrrolidine-1-carbonyl)-3-isobutyl-6-oxodecahydropyrrolo[1,2-a][1,5]diazocin-5-yl)carbamoyl)benzo[b]thiophen-5-yl)difluoromethyl)phosphonic acid]	0.1 to 1	≤ 0.3
N#CC1CN(C(=O)C2CCC3CCS(=N)(=O)CC(NC(=O)c4cc5cc(C(F)(F)P(=O)(O)O)ccc5s4)C(=O)N32)CC1c1ccccc1 (single isomer, unassigned) [Compound 7]	1 to 10	0.3 to 3
N#C[C@@H]1CN(C(=O)[C@@H]2CC[C@@H]3CCS(=O)(=O)C[C@H](NC(=O)c4cc5cc(C(F)(F)P(=O)(O)O)ccc5s4)C(=O)N32)C[C@H]1c1ccccc1 (single isomer, unassigned) [Compound 8]	0.1 to 1	≤ 0.3
